Structures are written as SMILES. Like-named read-outs stand apart in the source and are kept apart here.

One data set relates to melanoma patients. The note with it: cited from earlier work.
For data set [1] the following is noted: in vivo; cited from earlier work.
A further data set has as its system A375 cells. The data set is described as follows: Proliferation assay (cell count after 72 h), A375. Format: cell-based. Conditions: Homo sapiens, read-out: IC50 values. Here is the method: (§1) Cell culture: Murine primary melanoma […].3A cells were obtained from Dartmouth College, Hanover. […].3A cells were cultured in Advanced DMEM growth media supplemented with 5% FBS, 100 μg/mL streptomycin, 100 IU/mL penicillin, 12.5 IU/mL nystatin, and 1% GlutaMAXTM (Gibco, Waltham, MA, USA). Human metastatic melanoma 131/4-5B1 cells were obtained from University of Toronto, Canada, and were cultured in RPMI 1640 medium supplemented with 10% FBS, 100 μg/mL streptomycin, 100 IU/mL penicillin, 12.5 IU/mL nystatin, and 2 mM L-Glutamine (Biological Industries Ltd, Kibbutz Beit Haemek, Israel). Human primary melanoma A375 cells were obtained from ATCC and were cultured in RPMI 1640 medium supplemented with 10% FBS, 100 μg/mL streptomycin, 100 IU/mL penicillin, 12.5 IU/mL nystatin, and 2 mM L-Glutamine. […] Following 72 hours incubation, the cells were counted using a Z1 Coulter Counter (Beckman Coulter). […] Isobolograns and combination index: The interactions between DBF and TRM were evaluated by constructing isobolograms for different drugs ratios and calculating their combination index (CI).^51 First, the inhibitory concentration (IC) values of treatment with DBF, TRM, and their combinations were calculated from the proliferation assays. […]

A further data set deals with pERK and ki67 in tumors. The note with it: 30 mg/kg DBF daily, cited from earlier work.
In the next data set the test system is D4M.3A cells. As to the kind of experiment: Proliferation assay (cell count after 72 h), D4M.3A. Conditions: Mus musculus, read-out: IC50 values. Format: cell-based, murine. As for the experimental part:
as §1

Data set [2] deals with PD-L1 expression in EMT6 cells. As to the kind of experiment: PD-L1 expression in EMT6 cells by flow cytometry. In kind it is cell-based, murine. As for the experimental part:
PD-L1 expression after treatments with talazoparib: EMT6 murine mammary carcinoma cells (obtained from ATCC) were incubated with talazoparib (0.1 nM, 10 nM, and 100 nM) for 24-72 hours and then harvested using FACS buffer (protein levels). 1×10^6 cells were incubated with anti-PD-L1 at 1 μg/ml antibody concentration (Mouse PD-L1/B7-H1 Alexa Fluor® 647-conjugated Antibody; R & D Systems #FAB90781R) or isotype antibody (Rabbit IgG Alexa Fluor®647-conjugated Antibody, R & D Systems #IC1051R) for 1 hour on ice. The cells were washed twice with FACS buffer and the fluorescence intensity was measured by Attune NxT Flow Cytometer and analyzed by Kaluza software. All treatments were compared to the secondary antibody only or to the corresponding isotype control.
PD-L1i blocking activity: In order to assess the PD-L1i small molecule inhibition activity, murine EMT6 cells were seeded in 24-well plate (2×10^4 cells/well). After 24 hours, the medium was replaced with medium containing PD-L1i (SM56; [Acúrcio et al. Journal for ImmunoTherapy of Cancer, 10(7), e004695 (2022)]) for 24-72 hours. The cells were then harvested with FACS buffer, washed and resuspended in FACS buffer. EMT6 cells (1×10^6) were incubated with anti-PD-L1 at 1 μg/ml antibody concentration (Mouse PD-L1/B7-H1 Alexa Fluor®647-conjugated Antibody; R & D Systems #FAB90781R) or isotype antibody (Rabbit IgG Alexa Fluor®647-conjugated Antibody, R & D Systems #IC1051R) for 1 hour on ice. Additionally, to evaluate synergistic activity of PD-L1i with talazoparib, EMT6 cells were treated with the combination of PD-L1i and talazoparib for 48 hours. Later, same antibody and incubation conditions described previously were followed. These experiments were reproduced trice, and the data represent the mean±SD.
A general note: Flow cytometry measures light scatter and fluorescence of single cells or particles in a stream.

The test system of the next data set is EMT6 cells. As to the kind of experiment: Proliferation assay, EMT6. The note with it: Mus musculus. Format: cell-based, murine. Here is the method: (§2) Human MDA-MB-231 and MDA-MB-436, and murine 4T1 and EMT6 cells were obtained from the ATCC. EMT6, MDA-MB-231 and MDA-MB-436 cells were cultured in DMEM supplemented with 10% FBS, 100 IU/mL penicillin, 100 μg/mL streptomycin, 12.5 U/mL Nystatin, 2 mM L-glutamine. 4T1 cells were cultured in RPMI supplemented with 10% FBS, 100 IU/mL Penicillin, 100 μg/mL Streptomycin, 12.5 U/mL Nystatin, 2 mM L-glutamine, 1 mM sodium pyruvate and 10 mM HEPES Buffer. For MDA-MB-436, MDA-MB-23, 4T1 and EMT6, cells were seeded in 24-well plates (2.5×10^4, 2.5×10^4, 1×10^4, 2×10^3 cells/well, respectively) and incubated for 24 hours. Then, the cultured medium was replaced with a medium containing a serial dilution of talazoparib, talazoparib-loaded NPs or blank NPs (carrier only) for additional 72 hours. Untreated (control) cells were supplemented with fresh medium containing 0.1% DMSO. The cells were counted using a Z1 Coulter Counter (Beckman Coulter). Each treatment was assayed in triplicates, N=3.

The subject of another data set is 4T1 cells. As to the kind of experiment: Proliferation assay, 4T1. Format: cell-based, murine. Conditions: Mus musculus; 4T1 (BRCA wild-type), 72 hours. As for the experimental part:
as §2

Another data set concerns PD-L1 RNA in EMT6 cells. As to the kind of experiment: PD-L1 mRNA in EMT6 cells by q-Real time PCR. In kind it is cell-based, murine. The note with it: 10 nM, 24-72 hours. As for the experimental part: q-Real time PCR: Total RNA was isolated from cultured cells using the Direct-zol RNA Miniprep Plus (Zymo Research), according to the manufacturer's instructions. Once isolated, one microgram of RNA was reverse transcribed to cDNA using qScript cDNA synthesis kit (Quantabio, MA, USA). The cDNA was further diluted (1:50 in DNase/RNase-Free Water) for the qPCR. PD-L1 mRNA levels were assessed by SYBR green real-time PCR (StepOne plus; Thermo Fisher Scientific, Waltham, MA, USA) using PerFecTa SYBR Green FastMix ROX (Quanta BioSciences) and the following custom primers: murine PD-L1: forward, 5′-[…]-3′, reverse, 5′-[…]-3′. GAPDH: forward, 5′-ATTCCACCCATGGAATTC-3′, reverse, 5′-[…]-′3.
(In general: In qPCR the cycle at which signal appears reflects the starting amount.)

The subject of data set [3] is PD-L1 localizations in EMT6 cells. As to the kind of experiment: dSTORM imaging of PD-L1 in EMT6 cells. Format: cell-based, murine. The note with it: increasing concentrations, 48 hours. As for the experimental part:
dSTORM imaging of PD-L1 after exposure of EMT6 cells to talazoparib: EMT6 cells were seeded in Ibidi μ-slide 8 well glass bottom chambered coverslips at a density of 5000 cells per well. After 24 hours incubation, cells were treated with Talazoparib for 48 hours ([…]). After 48 hours cells were washed 1× with PBS and fixed using 3.7% formaldehyde solution for 10 minutes at room temperature. After fixation, cells were washed trice with PBS and incubated with 5% BSA solution overnight at 4° C. […] Between 6 and 10 cells were imaged for each condition. dSTORM images were analyzed with the Nikon NIS elements software (version 5.21.01). dSTORM localizations were detected using Gaussian fitting, with a minimum intensity threshold height of 150 for the 647 nm channel. Molecules detected in 5 consecutive frames were considered as a single blinking event, while molecules detected in more than 5 frames were discarded. […] The resulting x-y coordinates of the detected localizations were imported and run through a custom MATLAB scrip to quantify the localization density per cell. Each cell was manually selected by drawing an ROI around the cell contour (detected in the 488 channel). […]

The test system of the next data set is MDA-MB-436 cells. As to the kind of experiment: Proliferation assay, MDA-MB-436. In kind it is cell-based. Conditions: Homo sapiens; MDA-MB-436 (BRCA-mutated), 72 hours. Here is the method: as §2
Another data set deals with MDA-MB-231 cells. As to the kind of experiment: Proliferation assay, MDA-MB-231. The note with it: Homo sapiens; MDA-MB-231 (BRCA wild-type), 72 hours. In kind it is cell-based. Here is the method: as §2
Data set [4] has as its system mCherry-labeled EMT6 3D spheroids. As to the kind of experiment: mCherry-labeled EMT6 3D spheroids sprouting. Format: cell-based, murine. Conditions: Mus musculus, compared to the control. Here is the method: Analysis of mCherry-labeled EMT6 3D spheroids sprouting: 3D spheroid of EMT6 cells (2000 cells/spheroid) were prepared in DMEM medium supplemented with 0.24 w/v % methyl cellulose. The cells were deposited in 25 μL droplets into the inner side of a 20 mm dish and incubated for 48 hours at 37° C. when the plate is facing upside down to allow for spheroid formation. The spheroids were then embedded in Matrigel®, seeded in a 96-well plate, and monitored for cell invasion into the Matrigel®. The 3D spheroids were treated with talazoparib (1 nM, 100 nM and 1 μM) and their sprouting in the Matrigel® was evaluated by measuring the % red area with ImageJ software.

One may read the IC50 as the point on the concentration scale where inhibition reaches its midpoint. For `CC(C)(C)c1nc(-c2cccc(NS(=O)(=O)c3c(F)cccc3F)c2F)c(-c2ccnc(N)n2)s1` [DBF, dabrafenib], in the data set with melanoma patients, the “Overall survival (OS)” value is recorded as 18.7 months and the “Progression-free survival (PFS)” value is 8.8 months. Further, the “Steady-state brain to plasma concentration ratio” value in data set [1] was 0.019±0.02. In the data set with A375 cells (A-375, 72 h), the IC50 is 13.6 nM. In addition, in the data set on pERK and ki67 in tumors (6 hours post-final dose), the “Inhibition of pERK in tumors” value is 89% and the “Reduction in ki67 in tumors” value was 28%. In addition, the “Duration of pERK reduction in tumors post-dose” value with pERK and ki67 in tumors was “up to 18 hours”. In the data set with D4M.3A cells (72 h), the IC50 is 4.9 nM.

In general, inhibition refers to the share of the control response that was lost under treatment. A low value points to a response near the control. With `Cn1ncnc1[C@H]1c2n[nH]c(=O)c3cc(F)cc(c23)N[C@@H]1c1ccc(F)cc1` [talazoparib], the “PD-L1 expression relative to untreated cells” value in data set [2] (10 nM talazoparib and/or 10 μM PD-L1i, 48 hours) is reported as 3 folds. The PD-L1 protein expression result is “time-dependent increase in PD-L1 expression” in [2] (10 nM, 24-72 hours) and “induced PD-L1 expression in EMT6 cells in a dose-dependent manner” in data set [2] (increasing concentrations, 72 hours). Moreover, the IC50 in the data set with EMT6 cells (EMT6 (BRCA-mutated), 72 hours) is 10 nM; with EMT6 cells (EMT6 proliferation, NPs versus free drug (FIG. 32)), 8 nM; with 4T1 cells, 58 nM; in the data set on MDA-MB-436 cells, 2 nM; in the data set with MDA-MB-231 cells, 411 nM. Besides, the “PD-L1 RNA level” value in the data set on PD-L1 RNA in EMT6 cells is recorded as “time-dependent increase in PD-L1 expression”. Further, the “PD-L1 localizations and protein density (dSTORM)” value in data set [3] is “increased number of PD-L1 localizations and higher PD-L1 protein density”. The same compound yielded an inhibition at 1 µM in [4] of 70%.

`CC(=O)Nc1cccc(-n2c(=O)n(C3CC3)c(=O)c3c(Nc4ccc(I)cc4F)n(C)c(=O)c(C)c32)c1` [TRM, trametinib]: the “Steady-state brain to plasma concentration ratio” value in [1] was 0.03±0.01. In addition, the IC50 with A375 cells (A-375, A375, 72 hours) came out at 8.5 nM; in the data set on D4M.3A cells (D4M.3A, 72 hours) it was 8.6 nM.

Regarding `O=C1c2ccccc2C(=O)N1CNc1ccc(Oc2ccc(Cl)cc2)cc1` [SM56], in [2] (10 μM PD-L1i alone, 48 hours), the “Reduction of PD-L1 expression compared to untreated cells” value is reported as “about 40%”. For the same compound, the “PD-L1 expression over time” value in [2] (10 μM, 24-72 hours) is reported as “reduction in PD-L1 expression in a time-dependent manner”.

(Values after patent US20250352490A1, “P-SELECTIN TARGETED NANOPARTICLES AND USES THEREOF” (Ramot at Tel-Aviv University Ltd., priority 2023, published 2025).)
